In experiment [1] the test system is peroxidized lipid in a homogenate of rat brain. Briefly: Suppression on production of peroxidized lipid in a homogenate of rat brain (thiobarbituric acid (TBA) method). As to conditions: final concentration 0.01 mM, 37° C., 30 minutes, % of vehicle control. Type of experiment: biochemical, SD strain rats. On the procedure: Suppression on production of peroxidized lipid in a homogenate of rat brain:
SD strain rats (body weight, about 200 g) were sacrificed by cutting down their heads, and the brains were taken out. The brains were homogenated with a 4-fold amount of 0.05M phosphate-sodium chloride buffer (pH 7.4) and centrifuged at 1000×g for 10 minutes. The supernatant was kept at -80° C. for storage.
The supernatant was diluted with a 2-fold amount of the same phosphate - sodium chloride buffer as above, and 0.48 ml of the dilution was combined with 30 μl of ethanol per se (vehicle) or ethanol solution containing a test compound (final concentration: 0.01 mM), followed by incubation at 37° C. for 30 minutes. The reaction was terminated by addition of 0.01% butylhydroxytoluene (BHT) in ethanol (20 μl) and 25% metaphosphoric acid (125 μl) and subjected to elimination of proteins. The peroxidized lipid in the supernatant was measured by the thiobarbituric acid (TBA) method according to the description in Ohkawa et al.: Anal. Biochem., vol. 95, page 351 (1979). The amount of peroxidized lipid produced was compared with that in the vehicle applied group and expressed in % control.

Experiment [2] has as its system hydrochloric acid ethanol-induced gastric ulcer. The experiment in a line: Effect against hydrochloric acid ethanol-induced gastric ulcer. The experiment is classed as in vivo, male JCD-SD rats. The conditions noted are these: rat, oral, 30 minutes before hydrochloric acid-ethanol; from lesion index; dose not given. Here is the method:
Effect against hydrochloric acid ethanol-induced gastric ulcer.
To male JCD-SD rats (weight: 220-275 g) which have been fasted for 24 hours was administered orally 1 ml of 150 mM hydrochloric acid - 60% ethanol. After an hour, the stomachs were excised. The ulcer size as determined by measuring the length of each lesion under stereoscopic microscope and the sum of individual lesion length is expressed as lesion index. The vehicle (1% to 10% ethanol) and the test compounds were administered orally 30 minutes before the hydrochloric acid -ethanol administration. The percent suppression was calculated from the lesion indexes of treated versus untreated animals.

For `CC(C)(C)c1cc(SCCCC#N)cc(C(C)(C)C)c1O` [Ia, 4-(3,5-Di-tert-butyl-4-hydroxy)phenylthiobutylonitrile], in experiment [1], the “Peroxidized Lipid Produced (Expressed in % to Control)” value is reported as 4.5%. Moreover, in experiment [2], the “Inhibitory Rate (Expressed in % to Control)” value is on record as 94.3 ± 14.8%.

Take `CC(C)(C)c1cc(SCCCCC#N)cc(C(C)(C)C)c1O` [Ib, 5-(3,5-Di-tert-butyl-4-hydroxy)phenylthiopentanonitrile]: the “Peroxidized Lipid Produced (Expressed in % to Control)” value in experiment [1] came out at 3.6%. In experiment [2], the “Inhibitory Rate (Expressed in % to Control)” value is listed as 61.2 ± 18.4%.

Regarding `CC(C)(C)c1cc(SCCCCCC#N)cc(C(C)(C)C)c1O` [Ic, 6-(3,5-Di-tert-butyl-4-hydroxy)phenylthiohexanonitrile], in experiment [1], the “Peroxidized Lipid Produced (Expressed in % to Control)” value is recorded as 9.2%. Moreover, the “Inhibitory Rate (Expressed in % to Control)” value in experiment [2] came to 19.2 ± 8.4%.

Consider `CC(C)(C)c1cc(SCCCCCCC#N)cc(C(C)(C)C)c1O` [Id, 7-(3,5-Di-tert-butyl-4-hydroxy)phenylthioheptanonitrile], for which, in experiment [1], the “Peroxidized Lipid Produced (Expressed in % to Control)” value came to 5.4%. In addition, in experiment [2], the “Inhibitory Rate (Expressed in % to Control)” value came to 77.3 ± 16.8%.

As to `CC(C)(C)c1cc(SCCc2nnn[nH]2)cc(C(C)(C)C)c1O` [Ie, 5-[2-(3,5-Di-tert-butyl-4-hydroxy)phenylthioethyl]tetrazole], the “Peroxidized Lipid Produced (Expressed in % to Control)” value in experiment [1] was 8.1%. The “Inhibitory Rate (Expressed in % to Control)” value in experiment [2] is 37.2 ± 5.9%.

Turning to `CC(C)(C)c1cc(SCCCc2nnn[nH]2)cc(C(C)(C)C)c1O` [If, 5-[3-(3,5-Di-tert-butyl-4-hydroxy)phenylthiopropyl]tetrazole], in experiment [1], the “Peroxidized Lipid Produced (Expressed in % to Control)” value worked out at 5.7%. In experiment [2], the “Inhibitory Rate (Expressed in % to Control)” value worked out at 52.1 ± 20.0%.

`CC(C)(C)c1cc(SCCCCc2nnn[nH]2)cc(C(C)(C)C)c1O` [Ig, 5-[4-(3,5-Di-tert-butyl-4-hydroxy)phenylthiobutyl]tetrazole]: the “Peroxidized Lipid Produced (Expressed in % to Control)” value in experiment [1] came out at 4.1%. In addition, the “Inhibitory Rate (Expressed in % to Control)” value in experiment [2] is 49.2 ± 13.0%.

For `CC(C)(C)c1cc(SCCCCCc2nnn[nH]2)cc(C(C)(C)C)c1O` [Ih, 5-[5-(3,5-Di-tert-butyl-4-hydroxy)phenylthiopentyl]tetrazole], the “Peroxidized Lipid Produced (Expressed in % to Control)” value in experiment [1] amounted to 9.5%. In experiment [2], the “Inhibitory Rate (Expressed in % to Control)” value was found to be 52.5 ± 16.6%.

In the case of `CC(C)(C)c1cc(SCCCCCCc2nnn[nH]2)cc(C(C)(C)C)c1O` [Ii, 5-[6-(3,5-Di-tert-butyl-4-hydroxy)phenylthiohexyl]tetrazole], the “Peroxidized Lipid Produced (Expressed in % to Control)” value in experiment [1] was determined as 4.4%. The “Inhibitory Rate (Expressed in % to Control)” value in experiment [2] is 46.6 ± 13.4%.

Turning to `CC(C)(C)c1cc(SCCCCCC(N)=O)cc(C(C)(C)C)c1O` [Ij, 6-(3,5-Di-tert-butyl-4-hydroxy)phenylthiohexanamide], in experiment [1], the “Peroxidized Lipid Produced (Expressed in % to Control)” value is recorded as 4.7%. Also, in experiment [2], the “Inhibitory Rate (Expressed in % to Control)” value came out at 70.8 ± 8.5%.

Turning to `CC(C)(Sc1cc(C(C)(C)C)c(O)c(C(C)(C)C)c1)Sc1cc(C(C)(C)C)c(O)c(C(C)(C)C)c1` [Probucol, reference compound], the “Peroxidized Lipid Produced (Expressed in % to Control)” value in experiment [1] came to 58.3%. The “Inhibitory Rate (Expressed in % to Control)” value in experiment [2] is reported as 75.4 ± 22.1%.
